# Molecular target: T1, Asialoglycoprotein receptor 1 (Homo sapiens, UniProt P07306)
# T1 sequence (P07306 whole entry): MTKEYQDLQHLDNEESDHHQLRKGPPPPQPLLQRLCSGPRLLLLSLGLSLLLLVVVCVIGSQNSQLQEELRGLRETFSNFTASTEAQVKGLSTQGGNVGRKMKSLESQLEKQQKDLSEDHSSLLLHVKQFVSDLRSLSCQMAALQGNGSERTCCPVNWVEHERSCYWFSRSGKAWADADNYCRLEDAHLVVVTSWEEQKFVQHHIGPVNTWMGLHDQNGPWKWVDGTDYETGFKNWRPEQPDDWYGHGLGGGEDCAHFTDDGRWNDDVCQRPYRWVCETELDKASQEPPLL
# Test: ASGPR Measured Using Surface Plasmon Resonance (SPR)
# Protocol: Recombinant ASGPR protein is first biotinylated using Maleimide-PEG2-biotin reagent (Pierce, 19-fold molar excess) in phosphate-buffered saline (PBS) solution overnight at 4° C. Excess amount of biotin in the reaction mixture is removed by Zeba desalting columns (Thermo). Biotinylation is confirmed by mass spectroscopic analysis of ASGPR. Biotinylated ASGPR is then immobilized on SA sensor chips (GE Healthcare) with an immobilization level ranging from 1500-3000 resonance units (RU). The running buffer is 50 mM Tris, pH7.5, 150 mM NaCl, 50 mM CaCl2), 0.01% P20, 3% DMSO. […] The compounds are diluted 3 folds with total 8 concentration points. Solutions containing serially diluted compounds are injected at a flow rate of 50 μL/min for 60 sec followed by a 180 sec dissociation phase for each concentration. Data is processed using the analysis software in Biacore 8K to perform background subtraction, double referencing and solvent correction.
row,Kd [µM],Compound
1,< 100,"OC[C@H]1OC[C@@H](Nc2ncns2)[C@@H](O)[C@H]1O [US20240072809, Compound A147]"
2,> 1000,"OC[C@H]1OC[C@H](Nc2nc(Cl)cs2)[C@@H](O)[C@H]1O [US20240072809, Compound A99]"
3,< 100,"CO[C@@H]1O[C@H](CO)[C@H](O)[C@H](O)[C@H]1Nc1ncns1 [US20240072809, Compound A110]"
4,> 20,"OC[C@H]1OC[C@@H](Nc2nc(Cl)cs2)[C@@H](O)[C@H]1O [US20240072809, Compound A148]"
5,< 100,"OC[C@H]1OC[C@H](Nc2nc(-c3ccncc3)ns2)[C@@H](O)[C@H]1O [US20240072809, Compound A319]"

row,Compound,Kd [µM]
1,"OCCC[C@@H]1CO[C@H](CO)[C@H](O)[C@@H]1O [US20240072809, Compound A162]",> 1000

# From BindingDB's records for patent US20240072809 (Avilar Therapeutics, 2024)
